Experimental findings from patent US20060154919A1, “Combination of a glycine transporter (GLYT1) inhibitor and an antipsychotic for the treatment of symptoms of schizophrenia as well as its preparation and use thereof” (priority 2004, published 2006) are described below.

“Also recorded” adds a separate entry of the source.

In experiment [1] the test system is extracellular dopamine in the striatum. Nature of the experiment: Microdialysis: extracellular dopamine in the rat striatum. The format is in vivo. Conditions: for dose-response of extracellular dopamine: ascending doses (COMPOUND NO. 1 0.63, 2.5, 10 mg/kg; risperidone 0.16, 0.63, 2.5 mg/kg). The procedure:
(§1) Compounds (as a Na salt) were stored, dissolved, and administered according to detailed instructions accompanying each compound. Compounds were dissolved in a solvent consisting of 10% BCD (beta cyclodextrin) and administered subcutaneously.
(§2) Male Sprague Dawley rats weighing 275-325 g at the start of the experiment were individually housed in a temperature-controlled colony room with a 12-h light/dark cycle. Food and water was available ad libitum throughout the experiment. The housing conditions and care of the animals were in accordance with the “Guide for the Care and Use of Laboratory Animals” (Institute of Laboratory Animal Resources on Life Sciences, National Research Council, 1996).
(§3) Guide cannula were stored in 95% ETOH prior to surgery, whereas surgical tools underwent heat sterilization (250 °C) immediately before each surgery. Rats were anesthetized using a ketamine hydrochloride (100 mg/kg, IP) xylazine (12 mg/kg) mixture. After adequate anesthesia had been determined (using toe and tail pinch procedures), rats were placed into a stereotaxic instrument. The skull region was wiped with a 2% Betadine solution and a rostrocaudal incision was made to expose the surface of the skull. Bilateral guide cannula (20 gauge; Plastics One) were chronically implanted over the medial striatum (A/P: +0.5, M/L: ±2.5, D/V: −2.0; Paxinos & Watson, 1998) and secured using four skull screws and cranioplastic cement. The cannula need to be implanted at an angle to obtain the minimum inter-cannula distance needed for our probe leash used during microdialysis sampling. Following surgery, body temperature was maintained using a heating pad and the rats were monitored until fully conscious. Rats were then individually housed and assessed daily by monitoring general activity, body weight, and feces. Rats were monitored for signs of an infection and cefazolin (100 mg/kg; intramuscular) was available as needed. Notation was made of any animal administered antibiotic.
(§4) Rats were given at least five days to recover prior to microdialysis sampling. Approximately 18 hr prior to sampling, a microdialysis probe (24 gauge; 2-3 mm exposed membrane; 13000 MWCO) encased in a spring leash and attached to a liquid swivel connected to a balancing arm was inserted into the guide cannula of an awake rat. The probe was secured in place by screwing a threaded portion of the probe leash onto the guide cannula. The rat was then placed into a behavioral chamber (Omnitech, Columbus Ohio) equipped with a fan and house light (10W), and food and water was available ad libitum. On the day of the experiment, dialysis buffer consisting of 5 mM glucose, 140 mM NaCl, 1.4 mM CaCl2, 1.2 mM MgCl2, and 0.15% phosphate buffer saline, pH 7.4, was perfused through the probe (2.0 μl/min) at least two hr prior to sample collection. Twenty-min dialysis samples were then collected for two hr to determine basal glycine levels. Rats were then injected (intraperitoneal) with vehicle or one dose of the test compound, and 30-min samples were collected for up to 10 hr. Samples were split for separate chromatographic evaluation of glycine and dopamine, and frozen (−80 °C) until analyzed.
(§5) Rats, with the dialysis probes in place, were given an overdose of pentobarbital, and the brains fixed by intracardiac infusion of PBS-formalin. Coronal brain sections were 100 μM thick and stained with cresyl violet to verify probe placements. Probes were left in place as the animal was perfused in order to check for the presence of blood in the probe tract.
For dopamine analysis, samples were placed in an ESA (Chelmsford, Mass.) Model 540 autosampler connected to an HPLC system with electrochemical detection. Separation was achieved by pumping the samples through a 15 cm C18 reversed phase column (ESA, Inc.) and then samples were reduced/oxidized using coulometric detection.

Experiment [2] has as its system extracellular glycine in the striatum. As to the kind of experiment: Microdialysis: extracellular glycine in the rat striatum. Type of experiment: in vivo. Conditions: for dose-response of extracellular glycine: ascending doses (COMPOUND NO. 1 0.63, 2.5, 10 mg/kg; risperidone 0.16, 0.63, 2.5 mg/kg). The procedure: as §1, §2, §3, §4, §5
The concentrations of glycine and dopamine in dialysate samples was determined using a Waters Alliance 2690 HPLC system with fluorometeric detection or an ESA coulometric electrochemical detection HPLC system, respectively. Dialyis samples were split between the two systems enabling both dopamine and glycine to be measured in each sample. A Waters Spherisorb ODS2 column (5 μM, 4.6×250 mm) was used to separate the amino acids.

The mark [3] stands for this setting: risperidone alone, 0.16 mg/kg (lowest dose).
[4] abbreviates: COMPOUND NO. 1 alone, 10 mg/kg (highest dose), 10 mg/kg.

In the case of `Cc1nc2n(c(=O)c1CCN1CCC(c3noc4cc(F)ccc34)CC1)CCCC2` [risperidone, 3-[2-[4-(6-fluoro-1,2-benzisoxazol-3-yl)piperidino]ethyl]-2-methyl-6,7,8,9-tetrahydro-4H-pyrido-[1,2-a]pyrimidin-4-one, reference compound], the “dose-response of extracellular dopamine” value in experiment [1] is “dose-dependent elevation”. Further, the “threshold dose for elevation in extracellular dopamine” value in experiment [1] (risperidone alone) was found to be 0.16 mg/kg. The “elevation in extracellular dopamine” value in experiment [1] (setting [3]) is listed as “approximately 50%”. Further, the “expected increase in extracellular dopamine” value in experiment [1] (risperidone alone, 1.0 mg/kg, expected from FIGS. 1C-1D) came out at 300%. For the same compound, the “increase in extracellular dopamine” value in experiment [1] (risperidone alone, two higher doses (0.63 and 2.5 mg/kg)) was 3-4 fold. Further, the “dose-response of extracellular glycine” value in experiment [2] is given as “dose-dependent elevation”. The “threshold dose for elevation in extracellular glycine” value in experiment [2] (risperidone alone) turned out to be 0.16 mg/kg. The “effect on extracellular glycine” value was “without effect” in experiment [2] (setting [3]) and “modest rise” in experiment [2] (risperidone alone, at the dose examined in the combination (1.0 mg/kg)). In experiment [2] (risperidone alone, 2.5 mg/kg (highest dose)), the “increase in extracellular glycine” value is listed as 2.5 fold.
With `CN(C/C=C(/C#Cc1ccc(-c2ccoc2)cc1)c1ccccc1)CC(=O)O` [COMPOUND NO. 1], the “reduction in extracellular dopamine” value in experiment [1] (COMPOUND NO. 1 alone, 0.63 mg/kg (lowest dose)) is listed as around 50%. For the same compound, the “effect on extracellular dopamine” value is recorded as “significant reduction; also recorded: reduced extracellular dopamine” in experiment [1] (COMPOUND NO. 1 alone, 0.63 mg/kg (lowest dose), 0.63 mg/kg); “normalized; also recorded: returned to normal” in experiment [1] (COMPOUND NO. 1 alone, 2.5 mg/kg); “remained unaltered; also recorded: without effect” in experiment [1] (setting [4]). In experiment [1], the “dose-response of extracellular dopamine” value is “biphasic”. Moreover, the “increase in extracellular glycine” value in experiment [2] (setting [4]) is reported as 2.5 fold. Besides, in experiment [2], the “dose-response of extracellular glycine” value was “dose-dependent increase; also recorded: dose-dependent elevation”.
